Test results from patent publication EP4786487A1, “PEPTIDE” (Peptidream Inc, priority 2023, dated 2025).
Read-outs that look alike come from different tables or passages of the source. Starred links: 1 amine or outer side, 2 acyl side, 3 side chain; linkers in the order of their positions; H or OH if unused. Positions of bridges follow the written chain, without caps; N, C: chain ends. Non-standard residues stand in square brackets, D forms with d. Residues, ends and D or L forms follow the SMILES beside them. Groups on a side chain read outwards from the residue. *: point of attachment. X13 = O=C(O)c1ccc(-n2cc(C[C@H](N[*:1])C(=O)[*:2])c3ccccc32)cc1; Phe(3-OCH2COOH) = N[C@@H](Cc1cccc(OCC(=O)O)c1)C(=O)O; Trp(1-Ph) = N[C@@H](Cc1cn(-c2ccccc2)c2ccccc12)C(=O)O; NMePhe(4-CH2NH2) = CN[C@@H](Cc1ccc(CN)cc1)C(=O)O; Trp(6-OH) = N[C@@H](Cc1c[nH]c2cc(O)ccc12)C(=O)O; Phe(4-COOH) = N[C@@H](Cc1ccc(C(=O)O)cc1)C(=O)O; Piperazinyl(4-CH2COOH) = O=C(O)CN1CCN(*)CC1; Gly(N(CH2)3COOH) = O=C(O)CCCNCC(=O)O; Gly(octyl) = CCCCCCCC[C@H](N)C(=O)O; X1 = CCCCCCC[C@H](N[*:1])C(=O)[*:2]; Gly(N-(CH2)3OMe) = COCCCNCC(=O)O; NMeF = CN[C@@H](Cc1ccccc1)C(=O)O; NMeE = CN[C@@H](CCC(=O)O)C(=O)O; NMeA = CN[C@@H](C)C(=O)O; CO = O=C([*:1])[*:2]; Sar = CNCC(=O)O

Experiments:
GDF-11 = molecular target: T1, GDF-11 (Homo sapiens, UniProt O95390); test: HepG2 reporter gene assay, Evaluation Procedure (2): 2-concentrations assay, GDF-11 inhibition; assay type: cell-based; conditions: read-out: inhibition rate (GDF-11 inhibition assay)
T1 construct: purchased R&D systems 1958-GD-G8/CF
T1 sequence (O95390 299-407): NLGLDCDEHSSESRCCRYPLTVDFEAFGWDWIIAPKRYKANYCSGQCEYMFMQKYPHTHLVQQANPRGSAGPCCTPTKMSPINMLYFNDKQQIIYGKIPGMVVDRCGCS
Summary of the method: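 HepG2 cells carrying the transfected pGL3(CAGA)12-luc reporter, a pGL3 vector with luciferase placed downstream of 12 CAGA repeats, were stimulated with GDF-11 at a final 10 ng/mL together with test peptide. Blank wells received no GDF-11 and no peptide. Plates were incubated 20 to 24 hours at 37°C with 5% CO2. Luminescence from One-Glo substrate was read to calculate percent inhibition.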

Myostatin = molecular target: T2, Myostatin (Homo sapiens, UniProt O14793); test: HepG2 reporter gene assay, Evaluation Procedure (2): 2-concentrations assay, myostatin inhibition; assay type: cell-based; conditions: Table 7-3/7-4, myostatin 10 ng/mL, HepG2, read-out: inhibition rate (myostatin inhibition assay); for inhibition at 0.1 µM: peptide at the higher of the 2 concentrations; for inhibition at 0.03 µM: peptide at the lower of the 2 concentrations
T2 construct: active myostatin (also called mature myostatin) is a homodimer consisting of two C-terminal growth factor domains; purchased R&D systems 788-G8/CF
T2 sequence (O14793 267-375): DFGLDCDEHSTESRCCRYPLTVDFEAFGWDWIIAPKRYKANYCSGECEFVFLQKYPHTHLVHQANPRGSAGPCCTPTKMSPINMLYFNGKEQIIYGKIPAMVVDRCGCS
Summary of the method: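 HepG2 cells (HB-8065, ATCC) carrying the transfected pGL3(CAGA)12-luc reporter plasmid were treated with myostatin (788-G8/CF, R&D systems) at a final concentration of 10 ng/mL plus peptide and incubated at 37°C, 5% CO2 for 20 to 24 hours. Luminescence was read after adding PBS mixed 1:1 with One-Glo substrate, and inhibition rate was calculated.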

[1] = HepG2, first GDF-11 column of Table 7-3/7-4, GDF-11 10 ng/mL, peptide at the lower of the 2 concentrations
[2] = HepG2, second GDF-11 column of Table 7-3/7-4, GDF-11 10 ng/mL, peptide at the higher of the 2 concentrations

Row | SMILES | inhibition (GDF-11; [1]) | inhibition (GDF-11; [2]) | inhibition at 0.1 µM (Myostatin) | inhibition at 0.03 µM (Myostatin)
1 | CCCCCCC[C@@H]1NC(=O)[C@H](Cc2ccccc2)N(C)C(=O)[C@H](CCCNC(=N)N)NC(=O)[C@H](Cc2ccc(C(=O)O)cc2)NC(=O)[C@H](Cc2cccc(OCC(=O)O)c2)NC(=O)CN(C)C(=O)[C@H]([C@@H](C)CC)NC(=O)[C@H](Cc2ccccc2)N(C)C(=O)[C@H](Cc2ccc(O)cc2)NC(=O)[C@H](Cc2c[nH]c3ccccc23)NC(=O)[C@H](C)NC(=O)[C@H](C)NC(=O)CSC[C@H](C(=O)N[C@@H](CCCCNC(=O)N2CCN(CC(=O)O)CC2)C(=O)O)NC(=O)[C@H](Cc2ccccc2)N(C)C(=O)[C@H](C)N(C)C1=O [Myostatin_99_v427] ({CH2CO}-AAWY[NMeF]I[Sar][Phe(3-OCH2COOH)][Phe(4-COOH)]R[NMeF][X1][NMeA][NMeF][dC]K([CO-Piperazinyl(4-CH2COOH)])-OH; thioether N-15) | 0% | 0% | 100% | 98%
2 | CCCCCCC[C@@H]1NC(=O)[C@H](Cc2ccccc2)N(C)C(=O)[C@H](CCCNC(=N)N)NC(=O)[C@H](Cc2ccc(C(=O)O)cc2)NC(=O)[C@H](Cc2cccc(OCC(=O)O)c2)NC(=O)[C@H](C)N(C)C(=O)[C@H]([C@@H](C)CC)NC(=O)[C@H](Cc2ccccc2)N(C)C(=O)[C@H](Cc2ccc(O)cc2)NC(=O)[C@H](Cc2c[nH]c3ccccc23)NC(=O)[C@H](C)NC(=O)CN(CCCC(=O)O)C(=O)CSC[C@H](C(=O)N[C@@H](CCCCNC(=O)N2CCN(CC(=O)O)CC2)C(=O)O)NC(=O)[C@H](Cc2ccccc2)N(C)C(=O)[C@H](C)N(C)C1=O [Myostatin_99_v428] ({CH2CO}-[Gly(N(CH2)3COOH)]AWY[NMeF]I[NMeA][Phe(3-OCH2COOH)][Phe(4-COOH)]R[NMeF][X1][NMeA][NMeF][dC]K([CO-Piperazinyl(4-CH2COOH)])-OH; thioether N-15) | 0% | 0% | 99% | 96%

More lines, now with the values ahead:

Row | inhibition (GDF-11; [1]) | inhibition (GDF-11; [2]) | inhibition at 0.1 µM (Myostatin) | inhibition at 0.03 µM (Myostatin) | SMILES
3 | 0% | 0% | 100% | 100% | CCCCCCC[C@@H]1NC(=O)[C@H](Cc2ccccc2)N(C)C(=O)[C@H](CCCNC(=N)N)NC(=O)[C@H](Cc2ccc(C(=O)O)cc2)NC(=O)[C@H](Cc2cccc(OCC(=O)O)c2)NC(=O)[C@H](C)N(C)C(=O)[C@H]([C@@H](C)CC)NC(=O)[C@H](Cc2ccccc2)N(C)C(=O)[C@H](Cc2ccc(O)cc2)NC(=O)[C@H](Cc2cn(-c3ccccc3)c3ccccc23)NC(=O)[C@H](C)NC(=O)CN(CCCC(=O)O)C(=O)CSC[C@H](C(=O)O)NC(=O)[C@H](Cc2ccccc2)N(C)C(=O)[C@H](C)N(C)C1=O [Myostatin_99_v380] ({CH2CO}-[Gly(N(CH2)3COOH)]A[Trp(1-Ph)]Y[NMeF]I[NMeA][Phe(3-OCH2COOH)][Phe(4-COOH)]R[NMeF][X1][NMeA][NMeF][dC]-OH; thioether N-15)
4 | 0% | 44% | 100% | 100% | CCCCCCCC[C@@H]1NC(=O)[C@H](Cc2ccccc2)N(C)C(=O)[C@H](CCCNC(=N)N)NC(=O)[C@H](Cc2ccc(C(=O)O)cc2)NC(=O)[C@H](Cc2cccc(OCC(=O)O)c2)NC(=O)CN(C)C(=O)[C@H]([C@@H](C)CC)NC(=O)[C@H](Cc2ccccc2)N(C)C(=O)[C@H](Cc2ccc(O)cc2)NC(=O)[C@H](Cc2c[nH]c3cc(O)ccc23)NC(=O)[C@H](C)NC(=O)CN(CCCOC)C(=O)CSC[C@H](C(N)=O)NC(=O)[C@H](Cc2ccccc2)N(C)C(=O)[C@H](C)N(C)C1=O [Myostatin_99_v414] ({CH2CO}-[Gly(N-(CH2)3OMe)]A[Trp(6-OH)]Y[NMeF]I[Sar][Phe(3-OCH2COOH)][Phe(4-COOH)]R[NMeF][Gly(octyl)][NMeA][NMeF][dC]-NH2; thioether N-15)
5 | 0% | 0% | 100% | 100% | CCCCCCC[C@@H]1NC(=O)[C@@H]2Cc3ccc(cc3)CNC(=O)CC[C@@H](C(=O)N[C@@H](C)C(=O)N[C@@H](Cc3cn(-c4ccc(C(=O)O)cc4)c4ccccc34)C(=O)N[C@@H](Cc3ccc(O)cc3)C(=O)N(C)[C@@H](Cc3ccccc3)C(=O)N[C@@H]([C@@H](C)CC)C(=O)N3CCC[C@@H]3C(=O)N[C@@H](Cc3cccc(OCC(=O)O)c3)C(=O)N[C@@H](Cc3ccc(C(=O)O)cc3)C(=O)N[C@@H](CCCNC(=N)N)C(=O)N2C)N(C)C(=O)CSC[C@H](C(=O)O)NC(=O)[C@H](Cc2ccccc2)N(C)C(=O)[C@H](C)N(C)C1=O [Myostatin_99_v423] ({CH2CO}-[NMeE]A[X13]Y[NMeF]I[dP][Phe(3-OCH2COOH)][Phe(4-COOH)]R[NMePhe(4-CH2NH2)][X1][NMeA][NMeF][dC]-OH; lactam 1-11; thioether N-15)
